For the test, the target named is T1, human APJ receptor (Homo sapiens, UniProt P35414).
T1 construct: expressed in transfected cells
T1 sequence (P35414 1-380): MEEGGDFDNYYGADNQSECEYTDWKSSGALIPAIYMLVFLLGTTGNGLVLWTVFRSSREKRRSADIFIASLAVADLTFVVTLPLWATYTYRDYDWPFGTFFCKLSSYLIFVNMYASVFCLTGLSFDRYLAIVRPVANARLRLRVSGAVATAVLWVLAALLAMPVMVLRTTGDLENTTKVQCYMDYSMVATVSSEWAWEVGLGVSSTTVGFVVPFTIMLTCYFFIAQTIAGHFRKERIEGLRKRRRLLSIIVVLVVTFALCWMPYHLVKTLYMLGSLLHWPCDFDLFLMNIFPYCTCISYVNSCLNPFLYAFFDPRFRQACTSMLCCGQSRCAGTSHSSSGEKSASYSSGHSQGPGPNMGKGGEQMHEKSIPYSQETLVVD
As to the kind of experiment: Intracellular cAMP accumulation assay (APJ hcAMP, HTRF). Type of test: cell-based. To be noted: Table 2; HEK293 cells stably expressing human APJ receptor; read-out: hAPJ cAMP EC50 Potency range. The essentials: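 Inhibition of forskolin (2 μM)-driven cAMP, with […], measured by HTRF after 30 min room-temperature compound exposure of stably transfected HEK293 cells. cAMP read from a standard curve; variable-slope fit gives EC50, and maximal inhibition is normalised to (Pyr1)apelin-13 as 100%.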
(cAMP levels reflect the balance of adenylyl cyclase and phosphodiesterase activity.)
As for `CCCCc1nc(O)c(-c2nnc(Cc3ccc(Cl)cn3)o2)c(=O)n1[C@@H](C)c1ccc(F)cc1` [Example 98, 2-butyl-5-{5-[(5-chloropyridin-2-yl)methyl]-1,3,4-oxadiazol-2-yl}-3-[(1S)-1-(4-fluorophenyl)ethyl]-6-hydroxy-3,4-dihydropyrimidin-4-one], the EC50 was 0.01 to 10 nM.

For the compound `CCCCc1nc(O)c(-c2nnc(Cc3ccc(Cl)cn3)o2)c(=O)n1[C@H](COC)c1ccccc1` [Example 99], the EC50 is 10 to 100 nM.

For the compound `CCCCc1nc(O)c(-c2nnc(Cc3ccc(Cl)cn3)o2)c(=O)n1[C@H]1CCCc2ccccc21` [Example 100, 2-butyl-5-{5-[(5-chloropyridin-2-yl)methyl]-1,3,4-oxadiazol-2-yl}-6-hydroxy-3-[(1S)-1,2,3,4-tetrahydronaphthalen-1-yl]-3,4-dihydropyrimidin-4-one], the EC50 fell in the range of 0.01 to 10 nM.

On to `CCCCc1nc(O)c(-c2nnc(Cc3ccc(Cl)cn3)o2)c(=O)n1[C@@H](COC)c1ccccc1` [Example 101, 2-butyl-5-{5-[(5-chloropyridin-2-yl)methyl]-1,3,4-oxadiazol-2-yl}-6-hydroxy-3-[(1R)-2-methoxy-1-phenylethyl]-3,4-dihydropyrimidin-4-one], for which the EC50 is 0.01 to 10 nM.

Turning to `CCCCc1nc(O)c(-c2nnc(Cc3noc4ccccc34)o2)c(=O)n1[C@@H](C)c1ccc(OC)cc1` [Example 102, 5-{5-[(1,2-benzoxazol-3-yl)methyl]-1,3,4-oxadiazol-2-yl}-2-butyl-6-hydroxy-3-[(1S)-1-(4-methoxyphenyl)ethyl]-3,4-dihydropyrimidin-4-one], the EC50 is 100 to 300 nM.

As for `CCCCc1nc(O)c(-c2nnc(Cc3noc4ccccc34)o2)c(=O)n1[C@@H](C)c1cccc(C#N)c1` [Example 103, 3-[(1S)-1-(5-{5-[(1,2-benzoxazol-3-yl)methyl]-1,3,4-oxadiazol-2-yl}-2-butyl-4-hydroxy-6-oxo-1,6-dihydropyrimidin-1-yl)ethyl]benzonitrile], the EC50 lay within 10 to 100 nM.

On to `CCCCc1nc(O)c(-c2nnc(Cc3csc(C)n3)o2)c(=O)n1[C@@H](C)c1cccc(C#N)c1` [Example 104, 3-[(1S)-1-(2-butyl-4-hydroxy-5-{5-[(2-methyl-1,3-thiazol-4-yl)methyl]-1,3,4-oxadiazol-2-yl}-6-oxo-1,6-dihydropyrimidin-1-yl)ethyl]benzonitrile], for which the EC50 fell in the range of 10 to 100 nM.

As to `CCCCc1nc(O)c(-c2nnc(Cc3ccc(Cl)cn3)o2)c(=O)n1[C@@H](CCC)c1ccccc1` [Example 105, 2-butyl-5-{5-[(5-chloropyridin-2-yl)methyl]-1,3,4-oxadiazol-2-yl}-6-hydroxy-3-[(1S)-1-phenylbutyl]-3,4-dihydropyrimidin-4-one], the EC50 was in the range of 0.01 to 10 nM.

`CCCCc1nc(O)c(-c2nnc(Cc3csc(C)n3)o2)c(=O)n1[C@@H](CCC)c1ccccc1` [Example 106, 2-butyl-6-hydroxy-5-{5-[(2-methyl-1,3-thiazol-4-yl)methyl]-1,3,4-oxadiazol-2-yl}-3-[(1S)-1-phenylbutyl]-3,4-dihydropyrimidin-4-one]: the EC50 fell in the range of 10 to 100 nM.

`CCCCc1nc(O)c(-c2nnc(Cc3noc4ccccc34)o2)c(=O)n1[C@@H](CCC)c1ccccc1` [Example 107, 5-{5-[(1,2-benzoxazol-3-yl)methyl]-1,3,4-oxadiazol-2-yl}-2-butyl-6-hydroxy-3-[(1S)-1-phenylbutyl]-3,4-dihydropyrimidin-4-one]: the EC50 lay in the range of 10 to 100 nM.

Regarding `CCCCc1nc(O)c(-c2nnc(Cc3ccc(Cl)cn3)o2)c(=O)n1[C@@H](C)c1cccc(C#N)c1` [Example 108, 3-[(1S)-1-(2-butyl-5-{5-[(5-chloropyridin-2-yl)methyl]-1,3,4-oxadiazol-2-yl}-4-hydroxy-6-oxo-1,6-dihydropyrimidin-1-yl)ethyl]benzonitrile], the EC50 was 0.01 to 10 nM.

As to `CCCCc1nc(O)c(-c2nnc(Cc3ccc(Cl)cn3)o2)c(=O)n1C(C)c1ccncc1` (centres unmarked) [Example 109, 2-butyl-5-{5-[(5-chloropyridin-2-yl)methyl]-1,3,4-oxadiazol-2-yl}-6-hydroxy-3-[1-(pyridin-4-yl)ethyl]-3,4-dihydropyrimidin-4-one], the EC50 was in the range of 0.01 to 10 nM.

Turning to `CCCCc1nc(O)c(-c2nnc(Cc3noc4ccccc34)o2)c(=O)n1C(C)c1ccncc1` (centres unmarked) [Example 110, 5-{5-[(1,2-benzoxazol-3-yl)methyl]-1,3,4-oxadiazol-2-yl}-2-butyl-6-hydroxy-3-[1-(pyridin-4-yl)ethyl]-3,4-dihydropyrimidin-4-one], the EC50 fell in the range of 10 to 100 nM.

As for `CCCCc1nc(O)c(-c2nnc(Cc3ccc(Cl)cn3)o2)c(=O)n1C(C)c1ccncc1` (centres unmarked) [Example 111, 2-butyl-5-{5-[(5-chloropyridin-2-yl)methyl]-1,3,4-oxadiazol-2-yl}-6-hydroxy-3-[1-(pyridin-4-yl)ethyl]-3,4-dihydropyrimidin-4-one], the EC50 is 0.01 to 10 nM.

`CCCCc1nc(O)c(-c2nnc(Cc3csc(C)n3)o2)c(=O)n1C(c1ccccc1)C(C)C` (centres unmarked) [Example 112, 2-butyl-6-hydroxy-5-{5-[(2-methyl-1,3-thiazol-4-yl)methyl]-1,3,4-oxadiazol-2-yl}-3-(2-methyl-1-phenylpropyl)-3,4-dihydropyrimidin-4-one]: the EC50 lay in the range of 10 to 100 nM.

On to `CCCCc1nc(O)c(-c2nnc(Cc3ccc(Cl)cn3)o2)c(=O)n1C(c1ccccc1)C(C)C` (centres unmarked) [Example 113, 2-butyl-5-{5-[(5-chloropyridin-2-yl)methyl]-1,3,4-oxadiazol-2-yl}-6-hydroxy-3-(2-methyl-1-phenylpropyl)-3,4-dihydropyrimidin-4-one], for which the EC50 was in the range of 0.01 to 10 nM.

Consider `CCCCc1nc(O)c(-c2nnc(Cc3noc4ccccc34)o2)c(=O)n1[C@@H](C)c1cccc(OC)c1` [Example 114, 5-{5-[(1,2-benzoxazol-3-yl)methyl]-1,3,4-oxadiazol-2-yl}-2-butyl-6-hydroxy-3-[(1S)-1-(3-methoxyphenyl)ethyl]-3,4-dihydropyrimidin-4-one], for which the EC50 lay in the range of 10 to 100 nM.

Turning to `CCCCc1nc(O)c(-c2nnc(Cc3noc4ccccc34)o2)c(=O)n1C(c1ccccc1)C(C)C` (centres unmarked) [Example 115, 5-{5-[(1,2-benzoxazol-3-yl)methyl]-1,3,4-oxadiazol-2-yl}-2-butyl-6-hydroxy-3-(2-methyl-1-phenylpropyl)-3,4-dihydropyrimidin-4-one], the EC50 fell in the range of 10 to 100 nM.

For the compound `CCCCc1nc(O)c(-c2nnc(Cc3ccc(Cl)cn3)o2)c(=O)n1[C@@H](C)c1cccc(OC)c1` [Example 116, 2-butyl-5-{5-[(5-chloropyridin-2-yl)methyl]-1,3,4-oxadiazol-2-yl}-6-hydroxy-3-[(1S)-1-(3-methoxyphenyl)ethyl]-3,4-dihydropyrimidin-4-one], the EC50 lay in the range of 0.01 to 10 nM.

`CCCCc1nc(O)c(-c2nnc(Cc3noc4ccccc34)o2)c(=O)n1[C@@H]1CCc2ccccc21` [Example 117, 5-{5-[(1,2-benzoxazol-3-yl)methyl]-1,3,4-oxadiazol-2-yl}-2-butyl-3-[(1R)-2,3-dihydro-1H-inden-1-yl]-6-hydroxy-3,4-dihydropyrimidin-4-one]: the EC50 fell in the range of 100 to 300 nM.

`CCCCc1nc(O)c(-c2nnc(Cc3ccc(Cl)cn3)o2)c(=O)n1[C@@H](CC)c1ccccc1` [Example 118, 2-butyl-5-{5-[(5-chloropyridin-2-yl)methyl]-1,3,4-oxadiazol-2-yl}-6-hydroxy-3-[(1S)-1-phenylpropyl]-3,4-dihydropyrimidin-4-one]: the EC50 lay within 0.01 to 10 nM.

`CCCCc1nc(O)c(-c2nnc(Cc3ccc(Cl)cn3)o2)c(=O)n1[C@@H](C)c1ccccc1` [Example 119, 2-butyl-5-{5-[(5-chloropyridin-2-yl)methyl]-1,3,4-oxadiazol-2-yl}-6-hydroxy-3-[(1S)-1-phenylethyl]-3,4-dihydropyrimidin-4-one]: the EC50 lay in the range of 0.01 to 10 nM.

As to `CCCCc1nc(O)c(-c2nnc(Cc3ccc(Cl)cn3)o2)c(=O)n1[C@H](C)c1ccccc1` [Example 120, 2-butyl-5-{5-[(5-chloropyridin-2-yl)methyl]-1,3,4-oxadiazol-2-yl}-6-hydroxy-3-[(1R)-1-phenylethyl]-3,4-dihydropyrimidin-4-one], the half-maximal effective concentration (EC50) lay within 0.01 to 10 nM.

Turning to `CCCCc1nc(O)c(-c2nnc(Cc3noc4ccccc34)o2)c(=O)n1C(C)c1cccnc1` (centres unmarked) [Example 121, 5-{5-[(1,2-benzoxazol-3-yl)methyl]-1,3,4-oxadiazol-2-yl}-2-butyl-6-hydroxy-3-[1-(pyridin-3-yl)ethyl]-3,4-dihydropyrimidin-4-one], the EC50 lay within 100 to 300 nM.

Consider `CCCCc1nc(O)c(-c2nnc(Cc3ccc(Cl)cn3)o2)c(=O)n1[C@@H]1CCc2ccccc21` [Example 122], for which the EC50 lay within 10 to 100 nM.

As for `CCCCc1nc(O)c(-c2nnc(Cc3ccc(Cl)cn3)o2)c(=O)n1C(C)c1cccnc1` (centres unmarked) [Example 123, 2-butyl-5-{5-[(5-chloropyridin-2-yl)methyl]-1,3,4-oxadiazol-2-yl}-6-hydroxy-3-[1-(pyridin-3-yl)ethyl]-3,4-dihydropyrimidin-4-one], the EC50 fell in the range of 10 to 100 nM.

Usually EC50 stands for the midpoint of the concentration-response curve.

The values above are taken from US10669261B2, “Heteroarylhydroxypyrimidinones as agonists of the APJ receptor” (BRISTOL-MYERS SQUIBB COMPANY, priority 2015, dated 2020).
